# Assay results: patent US20190380978A1, “SOLID ORAL DOSAGE FORMS OF 2R,6R-HYDROXYNORKETAMINE OR DERIVATIVES THEREOF” (priority 2016, published 2019)
# Assays:
# 5-HT1B = 5-HT1B (Homo sapiens, UniProt P28222); assay: binding to 5-HT1B receptor
# Source text: (§1) 2R,6R-hydroxynorketamine was investigated for binding to monoamine oxidases A and B, monoamine transporters, as well as a variety of 5HT receptors.
# [1] = target: norepinephrine transporter (Homo sapiens, UniProt P23975); assay: binding to norepinephrine transporter
# Source text: as §1
# 5-HT transporter = 5-HT transporter (Homo sapiens, UniProt P31645); assay: binding to 5-HT transporter
# Source text: as §1
# CYP3A4 = CYP3A4 (Homo sapiens, UniProt P08684); assay: CYP inhibition assay, CYP3A4 (substrates midazolam and testosterone); assay type: in vitro ADME; conditions: for inhibition at 0.4 µM / inhibition at 1 µM / inhibition at 4 µM / inhibition at 10 µM / inhibition at 40 µM / inhibition at 100 µM: human
# Source text: Cytochrome P450s (CYPs) are a family of enzymes that play a primary role in the metabolism of a wide variety of drugs. 2R,6R-hydroxynorketamine was investigated for its potential to inhibit the action of 7 key CYP enzymes using an inhibition assay measuring reduction in the formation of metabolites compared to control.
# [2] = in vitro hepatocyte stability assay, rat; assay type: in vitro ADME; conditions: cryopreserved hepatocytes
# Protocol: (§2) 2R,6R-hydroxynorketamine was investigated using an in vitro hepatocyte stability assay, during which 2R,6R-hydroxynorketamine was incubated with cryopreserved hepatocytes from 3 test species.
# metabolite profiling = assay type: in vitro ADME; conditions: hepatocyte data with metabolite profiling
# Protocol: as §2
# [3] = tested on: α-amino-3-hydroxy-5-methyl-4-isoxazolepropionic acid receptor (AMPAR)-mediated currents; assay: in vitro electrophysiological experiments (fEPSPs)
# Protocol: The free (unbound) concentration of 2R,6R-hydroxynorketamine producing pharmacodynamics activity in the brain is estimated to be approximately 10 μM.
# [4] = DSC analysis of compatibility with diluents and capsule shells
# [5] = probe midazolam, Substrate = midazolam
# [6] = probe testosterone, Substrate = testosterone
# Chain of CYP3A4 (P08684 whole entry): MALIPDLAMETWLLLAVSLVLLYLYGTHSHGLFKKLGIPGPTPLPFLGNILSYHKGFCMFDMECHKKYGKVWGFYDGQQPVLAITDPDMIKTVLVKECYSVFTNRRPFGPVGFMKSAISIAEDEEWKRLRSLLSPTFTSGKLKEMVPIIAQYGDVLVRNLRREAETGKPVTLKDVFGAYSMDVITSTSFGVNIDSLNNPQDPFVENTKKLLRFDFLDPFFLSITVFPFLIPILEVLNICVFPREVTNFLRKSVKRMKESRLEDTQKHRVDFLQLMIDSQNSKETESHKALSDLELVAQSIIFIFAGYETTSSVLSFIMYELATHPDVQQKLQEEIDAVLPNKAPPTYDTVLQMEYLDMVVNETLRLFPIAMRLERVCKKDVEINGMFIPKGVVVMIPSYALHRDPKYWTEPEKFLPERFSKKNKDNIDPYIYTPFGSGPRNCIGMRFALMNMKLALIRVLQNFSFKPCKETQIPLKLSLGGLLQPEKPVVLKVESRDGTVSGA
# Chain of 5-HT1B (P28222 whole entry, species assumed): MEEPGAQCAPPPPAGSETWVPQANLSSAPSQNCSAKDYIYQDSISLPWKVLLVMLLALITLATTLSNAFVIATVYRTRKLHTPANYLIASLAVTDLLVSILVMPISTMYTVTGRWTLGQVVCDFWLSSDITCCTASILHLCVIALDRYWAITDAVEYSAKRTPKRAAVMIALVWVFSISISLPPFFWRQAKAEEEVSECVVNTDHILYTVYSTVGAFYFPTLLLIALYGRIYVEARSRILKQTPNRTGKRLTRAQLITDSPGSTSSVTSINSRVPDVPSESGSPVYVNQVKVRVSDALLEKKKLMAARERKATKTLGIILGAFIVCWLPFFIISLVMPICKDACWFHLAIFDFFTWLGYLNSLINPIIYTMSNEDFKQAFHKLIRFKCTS
# Chain of 5-HT transporter (P31645 whole entry, species assumed): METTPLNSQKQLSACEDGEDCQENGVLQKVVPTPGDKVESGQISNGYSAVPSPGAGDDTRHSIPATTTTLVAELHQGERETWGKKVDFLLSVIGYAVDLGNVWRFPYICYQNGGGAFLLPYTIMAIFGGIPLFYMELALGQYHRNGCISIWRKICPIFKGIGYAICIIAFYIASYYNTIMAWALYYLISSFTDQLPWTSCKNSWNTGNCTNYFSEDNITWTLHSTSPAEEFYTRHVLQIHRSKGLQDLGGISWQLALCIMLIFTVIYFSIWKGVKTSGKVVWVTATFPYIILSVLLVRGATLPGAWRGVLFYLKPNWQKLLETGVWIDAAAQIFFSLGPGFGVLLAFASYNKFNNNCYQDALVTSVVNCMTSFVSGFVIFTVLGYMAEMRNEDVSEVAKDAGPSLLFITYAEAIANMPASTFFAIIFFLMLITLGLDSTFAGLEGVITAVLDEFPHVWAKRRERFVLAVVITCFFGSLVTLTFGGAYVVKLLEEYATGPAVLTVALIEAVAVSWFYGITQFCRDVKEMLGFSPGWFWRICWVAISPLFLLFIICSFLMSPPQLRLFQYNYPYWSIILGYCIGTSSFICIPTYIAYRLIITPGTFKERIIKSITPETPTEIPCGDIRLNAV
# Chain of norepinephrine transporter (P23975 whole entry, species assumed): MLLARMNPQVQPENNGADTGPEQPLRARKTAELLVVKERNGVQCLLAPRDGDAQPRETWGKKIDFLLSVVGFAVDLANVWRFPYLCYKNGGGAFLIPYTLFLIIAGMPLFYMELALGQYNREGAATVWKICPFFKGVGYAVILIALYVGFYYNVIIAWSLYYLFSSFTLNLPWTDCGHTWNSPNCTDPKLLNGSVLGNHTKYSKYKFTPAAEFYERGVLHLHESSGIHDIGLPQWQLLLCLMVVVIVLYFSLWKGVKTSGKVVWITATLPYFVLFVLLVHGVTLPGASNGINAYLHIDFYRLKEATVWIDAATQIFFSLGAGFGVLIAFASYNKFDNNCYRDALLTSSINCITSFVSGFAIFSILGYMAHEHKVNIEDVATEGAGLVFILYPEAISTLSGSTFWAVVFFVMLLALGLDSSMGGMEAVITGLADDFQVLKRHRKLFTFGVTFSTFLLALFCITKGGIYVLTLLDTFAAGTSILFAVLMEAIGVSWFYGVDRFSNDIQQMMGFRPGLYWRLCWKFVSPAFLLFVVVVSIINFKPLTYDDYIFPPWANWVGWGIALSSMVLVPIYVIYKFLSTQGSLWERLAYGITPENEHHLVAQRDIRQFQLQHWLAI
compound,measurement,setting,value
"N[C@@]1(c2ccccc2Cl)CCC[C@@H](O)C1=O [2R,6R-hydroxynorketamine]",% Inhibition of Control Specific Binding,5-HT1B,−2%
same,% of Control Specific Binding,5-HT1B,102.7%
same,binding to 5HT1B receptor subtype,5-HT1B,does not bind
same,% Inhibition of Control Specific Binding,[1],−16%
same,% of Control Specific Binding,[1],117.6%
same,% Inhibition of Control Specific Binding,5-HT transporter,2%
same,% of Control Specific Binding,5-HT transporter,102.0%
same,inhibition at 0.4 µM,CYP3A4; [5],11.5%
same,inhibition at 1 µM,CYP3A4; [5],8.44%
same,inhibition at 4 µM,CYP3A4; [5],15.7%
same,inhibition at 10 µM,CYP3A4; [5],25.7%
same,inhibition at 40 µM,CYP3A4; [5],43.7%
same,inhibition at 100 µM,CYP3A4; [5],57.5%
same,inhibition at 0.4 µM,CYP3A4; [6],1.62%
same,inhibition at 1 µM,CYP3A4; [6],-0.509%
same,inhibition at 4 µM,CYP3A4; [6],7.04%
same,inhibition at 10 µM,CYP3A4; [6],12.4%
same,inhibition at 40 µM,CYP3A4; [6],35.2%
same,inhibition at 100 µM,CYP3A4; [6],53.4%
same,IC50,CYP3A4; substrate midazolam,69 µM
same,IC50,CYP3A4; substrate testosterone,81 µM
same,half-life,[2],25.1 min
same,hepatocyte CLint,[2],55.2 µL/min/1e6 cells
same,phase I metabolism by CYP enzymes,metabolite profiling,does not undergo phase I metabolism
same,route of metabolism and excretion,metabolite profiling,glucuronidated and excreted via the renal system
same,field excitatory postsynaptic potentials (fEPSPs),"[3]; 10 μM, in vitro electrophysiology",increase
same,free (unbound) concentration producing pharmacodynamics activity in the brain,[3]; estimated,approximately 10 μM
same,substrate of p-gp or Breast Cancer Resistance Protein (BCRP) efflux transporters,Caco-2; Caco-2,not a substrate
same,permeability,Caco-2; Caco-2 permeability assay,high
same,compatibility with hydroxypropyl methylcellulose capsule shells,[4],compatibility
same,compatibility with dicalcium phosphate,[4]; DSC,compatibility
same,compatibility with microcrystalline cellulose,[4]; DSC,compatibility
same,compatibility with lactose monohydrate,"[4]; DSC, binary mix, 1:2 ratio of API:Excipient",incompatible
